In data set [1] the test system is Trypanosoma cruzi. In words: Trypanocidal activity against epimastigote form of Trypanosoma cruzi IRHOD/CO/2008/SN3 assessed as appearance of strongly electrondensed glycosomes at IC25 after 96 hrs by transmission electron microscopic analysis. It counts as functional, organism-based.
Data set [2] relates to Trypanosoma cruzi. In words: Trypanocidal activity against bloodstream trypomastigote form of Trypanosoma cruzi IRHOD/CO/2008/SN3 infected in cyclophosphamide monohydrate-treated BALB/c immunosuppression mouse model assessed as reduction of total anti-parasitic Ig-G level in serum at 5 mg/kg/day, ip administered for 5 days measured 150 days post-infection by ELISA. It counts as functional, organism-based. A general note: In an ELISA, binding on a coated surface is turned into a signal by an enzyme label.

A short description of data set [3]: Selectivity index, ratio of IC50 for African green monkey Vero cells to IC50 for intracellular amastigote form of Trypanosoma cruzi IRHOD/CO/2008/SN3. It is filed as toxicity, cell-based. The following applies: read-out: Ratio IC50.
Data set [4] relates to Trypanosoma cruzi. As to the kind of experiment: Trypanocidal activity against bloodstream trypomastigote form of Trypanosoma cruzi IRHOD/CO/2008/SN3 infected in BALB/c mouse assessed as reduction of parasite load in heart at 5 mg/kg/day, ip administered for 5 days measured 150 days post-infection by PCR analysis. It is filed as functional, organism-based.
Data set [5] has as its system Trypanosoma cruzi. In words: Trypanocidal activity against epimastigote form of Trypanosoma cruzi IRHOD/CO/2008/SN3 assessed as abundant larger acidocalcisomes at IC25 after 96 hrs by transmission electron microscopic analysis. It is filed as functional, organism-based.
For a further data set, the system named is Mus musculus. As to the kind of experiment: Hepatotoxicity in BALB/c mouse infected with bloodstream trypomastigote form of Trypanosoma cruzi IRHOD/CO/2008/SN3 assessed as delocalized hepatic destruction at 5 mg/kg/day, ip administered for 5 days measured 150 days post-infection by light microscopic analysis. It counts as toxicity, organism-based. Also noted: route intraperitoneal. The following applies: in vivo, 3600 h.

Data set [6] has as its system Trypanosoma cruzi. As to the kind of experiment: Trypanocidal activity against bloodstream trypomastigote form of Trypanosoma cruzi IRHOD/CO/2008/SN3 infected in cyclophosphamide monohydrate-treated BALB/c immunosuppression mouse model assessed as reduction of parasite load in liver at 5 mg/kg/day, ip administered for 5 days measured 150 days post-infection by PCR analysis. It is filed as functional, organism-based.

Data set [7] relates to Trypanosoma cruzi. As to the kind of experiment: Trypanocidal activity against epimastigote form of Trypanosoma cruzi IRHOD/CO/2008/SN3 assessed as induction of ethanol production at IC25 after 96 hrs by NMR spectra analysis. It counts as functional, organism-based.
Data set [8] has as its system Trypanosoma cruzi. As to the kind of experiment: Trypanocidal activity against intracellular amastigote form of Trypanosoma cruzi IRHOD/CO/2008/SN3 infected in African green monkey Vero cells after 72 hrs by Giemsa staining assay. Particulars: IRHOD/CO/2008/SN3, Vero. It is filed as functional, organism-based.
In data set [9] the test system is Trypanosoma cruzi. As to the kind of experiment: Trypanocidal activity against epimastigote form of Trypanosoma cruzi IRHOD/CO/2008/SN3 assessed as dispersed cytoplasm at IC25 after 96 hrs by transmission electron microscopic analysis. It counts as functional, organism-based.
The subject of data set [10] is Trypanosoma cruzi. In words: Trypanocidal activity against epimastigote form of Trypanosoma cruzi IRHOD/CO/2008/SN3 assessed as inhibition of acetate excretion at IC25 after 96 hrs by NMR spectra analysis. It counts as functional, organism-based.

Structures are written as SMILES. Calls of active or inactive are those of the source. The rule behind the calls is not given here.

For orientation: IC50 means the concentration that inhibits the measured activity by half.

On to `Cl.c1cncc(CNCCN2CCNCc3cccc(n3)CNCC2)c1`, for which the outcome with Trypanosoma cruzi [1], in the data set on Trypanosoma cruzi [2], with Trypanosoma cruzi [4], with Trypanosoma cruzi [5], in the data set with Trypanosoma cruzi [6] and in the data set with Trypanosoma cruzi [7] was Active. The result in the data set with Trypanosoma cruzi [9] was Active. Besides, the selectivity ratio in [3] was 44.8. Moreover, the Activity result in the data set on Mus musculus was “Toxic”. The compound also showed an IC50 in the data set with Trypanosoma cruzi [8] of 9.5 µM. In addition, the inhibition entry in the data set on Trypanosoma cruzi [10] was “Active”.

Values taken from ChEMBL document CHEMBL3085706, “Scorpiand-like azamacrocycles prevent the chronic establishment of Trypanosoma cruzi in a murine model” (Eur J Med Chem, 2013).
